Laboratory results: paper PMC9432691, “Characterisation of a soil MINPP phytase with remarkable long-term stability and activity from Acinetobacter sp” (PLoS ONE, 2022)

Target: T1, AtITPK1 (inositol tris/tetrakisphosphate kinase 1) (Arabidopsis thaliana, UniProt Q9SBA5)
T1 construct: gene ITPK1
T1 sequence (Q9SBA5 2-319): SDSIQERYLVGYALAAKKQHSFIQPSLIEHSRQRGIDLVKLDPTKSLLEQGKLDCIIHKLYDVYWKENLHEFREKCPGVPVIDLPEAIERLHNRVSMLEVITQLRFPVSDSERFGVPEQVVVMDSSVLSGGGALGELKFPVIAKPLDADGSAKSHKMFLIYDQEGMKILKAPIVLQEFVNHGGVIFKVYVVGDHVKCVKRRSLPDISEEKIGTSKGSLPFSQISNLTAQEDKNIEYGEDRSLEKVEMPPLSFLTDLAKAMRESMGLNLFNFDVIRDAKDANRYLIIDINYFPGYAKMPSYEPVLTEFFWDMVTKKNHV
Assay: pyrophosphorylation assay with […] substrate, HPLC; […] conversion
Assay type: biochemical

Structure (SMILES): O=P(O)(O)O[C@H]1[C@H](OP(=O)(O)O)[C@@H](OP(=O)(O)O)[C@H](OP(=O)(O)O)[C@@H](OP(=O)(O)O)[C@H]1OP(=O)(O)O [InsP6, myo-inositol 1,2,3,4,5,6-hexakisphosphate]
- % conversion: 90 % conversion
